15 compounds from patent US9481676B2, “Azepino[4,5-B]indoles and methods of use” (Medivation Technologies, Inc., priority 2008, dated 2016) can be followed below.

The target of this experiment is T1, human recombinant adrenergic α1D receptor (Homo sapiens, UniProt P25100).
T1 construct: expressed in transfected cells; host or cells: HEK-293 cells
T1 sequence (P25100 1-572): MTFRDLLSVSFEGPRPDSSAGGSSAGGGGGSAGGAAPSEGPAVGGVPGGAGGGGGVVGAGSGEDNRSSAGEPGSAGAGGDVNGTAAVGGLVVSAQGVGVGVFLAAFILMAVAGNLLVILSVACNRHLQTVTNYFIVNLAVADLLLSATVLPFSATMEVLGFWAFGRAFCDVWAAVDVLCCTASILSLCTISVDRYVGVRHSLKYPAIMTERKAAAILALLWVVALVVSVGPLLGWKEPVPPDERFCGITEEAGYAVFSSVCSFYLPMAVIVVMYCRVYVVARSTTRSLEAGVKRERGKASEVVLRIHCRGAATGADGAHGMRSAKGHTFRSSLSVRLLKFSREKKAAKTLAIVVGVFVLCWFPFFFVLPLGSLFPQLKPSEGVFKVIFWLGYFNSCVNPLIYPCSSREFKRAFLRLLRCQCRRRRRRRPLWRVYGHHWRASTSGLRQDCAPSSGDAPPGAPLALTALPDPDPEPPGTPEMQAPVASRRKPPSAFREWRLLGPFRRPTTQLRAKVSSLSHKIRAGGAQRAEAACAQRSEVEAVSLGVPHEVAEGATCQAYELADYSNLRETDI
In words: Adrenergic alpha1D radioligand binding ([3H]Prozosin). Particulars: compound at 1 μM; read-out: Adrenergic (1 μM) α1D, percent inhibition of specific binding. On the procedure:
To evaluate in radioligand binding assays the activity of compounds of the invention, human recombinant adrenergic α1D receptor expressed in human embryonic kidney (HEK-293) cells (Kenny, B. A. et al. Br. J. Pharmacol. 115(6):981, 1995) in a 50 mM Tris-HCl buffer, pH 7.4, was used. Compounds of invention were incubated with 0.6 nM [^3H]Prozosin for 60 min. at 25° C. Non-specific binding was estimated in the presence of 10 μM phentolamine. Receptor proteins were filtered and washed, the filters were then counted to determine [^3H]Prozosin specifically bound. Compounds were screened at 1 μM or lower, using 1% DMSO as vehicle. Biochemical assay results are presented as the percent inhibition of specific binding in Table 5.
Regarding `C/C(=C\n1c2c(c3cc(Cl)ccc31)CCN(C)CC2)c1ccc(Cl)cc1` [Compound No. 36, 9-chloro-6-((E)-2-(4-chlorophenyl)prop-1-enyl)-1,2,3,4,5,6-hexahydro-3-methylazepino[4,5-b]indole], the inhibition at 1 µM worked out at 95%.

On to `Cc1ccc2c(c1)c1c(n2CCc2ccncc2)CCN(C)CC1` [Compound No. 6, 1,2,3,4,5,6-hexahydro-3,9-dimethyl-6-(2-(pyridin-4-yl)ethyl)azepino[4,5-b]indole], for which the inhibition at 1 µM is 92%.

In the case of `CC(C)NC(=O)Cn1c2c(c3cc(Cl)ccc31)CCN(C)CC2` [Compound No. 31, 2-(9-chloro-2,3,4,5-tetrahydro-3-methylazepino[4,5-b]indol-6(1H)-yl)-N-isopropylacetamide], the inhibition at 1 µM was found to be 6%.

With `Cc1ccc2c(c1)c1c(n2CC(O)c2ccc(F)cc2F)CCN(C)CC1` (stereo not drawn) [Compound No. 59, 1-(2,4-difluorophenyl)-2-(2,3,4,5-tetrahydro-3,9-dimethylazepino[4,5-b]indol-6(1H)-yl)ethanol], the inhibition at 1 µM was 73%.

Consider `CN1CCc2c(n(CC(=O)N3CCCCC3)c3ccc(Cl)cc23)CC1` [Compound No. 57, 2-(9-chloro-2,3,4,5-tetrahydro-3-methylazepino[4,5-b]indol-6(1H)-yl)-1-(piperidin-1-yl)ethanone], for which the inhibition at 1 µM is -7%.

As to `Cc1ccc2c(c1)c1c(n2/C=C/c2ccccc2F)CCN(C)CC1` [Compound No. 233, (E)-6-(2-fluorostyryl)-3,9-dimethyl-1,2,3,4,5,6-hexahydroazepino[4,5-b]indole], the inhibition at 1 µM came to 96%.

Turning to `COc1ccc(C(O)Cn2c3c(c4cc(C)ccc42)CCN(C)CC3)cc1F` (stereo not drawn) [Compound No. 68, 1-(3-fluoro-4-methoxyphenyl)-2-(2,3,4,5-tetrahydro-3,9-dimethylazepino[4,5-b]indol-6(1H)-yl)ethanol], the inhibition at 1 µM was found to be 93%.

For `Cc1ccc2c(c1)c1c(n2CC(O)c2ccncc2)CCN(C)CC1` (stereo not drawn) [Compound No. 43, 2-(2,3,4,5-tetrahydro-3,9-dimethylazepino[4,5-b]indol-6(1H)-yl)-1-(pyridin-4-yl)ethanol], the inhibition at 1 µM came out at 70%.

As for `CN1CCc2c(n(CC(O)c3ccncc3)c3ccc(Cl)cc23)CC1` (stereo not drawn) [Compound No. 42, 2-(9-chloro-2,3,4,5-tetrahydro-3-methylazepino[4,5-b]indol-6(1H)-yl)-1-(pyridin-4-yl)ethanol], the inhibition at 1 µM is 73%.

On to `CN1CCc2c(n(CCc3ccccc3F)c3ccccc23)CC1` [Compound No. 237, 6-(2-fluorophenethyl)-3-methyl-1,2,3,4,5,6-hexahydroazepino[4,5-b]indole], for which the inhibition at 1 µM is 70%.

For `Cc1ccc2c(c1)c1c(n2CC(O)c2ccccc2F)CCN(C)CC1` (stereo not drawn) [Compound No. 41, 1-(2-fluorophenyl)-2-(2,3,4,5-tetrahydro-3,9-dimethylazepino[4,5-b]indol-6(1H)-yl)ethanol], the inhibition at 1 µM was found to be 75%.

In the case of `Cc1ccc2c(c1)c1c(n2CCc2ccc(Cl)cc2)CCN(C)CC1` [Compound No. 28, 6-(4-chlorophenethyl)-1,2,3,4,5,6-hexahydro-3,9-dimethylazepino[4,5-b]indole], the inhibition at 1 µM was determined as 94%.

As for `CN1CCc2c(n(CCc3ccccc3F)c3ccc(Cl)cc23)CC1` [Compound No. 61, 6-(2-fluorophenethyl)-9-chloro-1,2,3,4,5,6-hexahydro-3-methylazepino[4,5-b]indole], the inhibition at 1 µM was -5%.

For the compound `Cc1ccc2c(c1)c1c(n2CCc2ccccc2F)CCN(C)CC1` [Compound No. 63, 6-(2-fluorophenethyl)-1,2,3,4,5,6-hexahydro-3,9-dimethylazepino[4,5-b]indole], the inhibition at 1 µM turned out to be 77%.

As for `CN1CCc2c(n(CC(O)c3ccccc3)c3ccc(Cl)cc23)CC1` (stereo not drawn) [Compound No. 24, 2-(9-chloro-2,3,4,5-tetrahydro-3-methylazepino[4,5-b]indol-6(1H)-yl)-1-phenylethanol], the inhibition at 1 µM amounted to 85%.
